Residues, ends and D or L forms follow the SMILES beside them. *: point of attachment. Cbz = O=C(OCc1ccccc1)*; CH2F = FC*
Key:
[1] = tested on: AIM2 (Absent in melanoma-2) inflammasome; conditions: by preventing ASC oligomerisation; cited from earlier work
[2] = target: caspase-1 (Homo sapiens, UniProt P29466); conditions: cited from earlier work
[3] = target: caspase-4 (Homo sapiens, UniProt P49662); conditions: read-out: Ki against caspase-4; cited from earlier work
[4] = tested on: transient ischemia in rat; conditions: cited from earlier work
[5] = tested on: CFSE-labeled CD4 T-cells; format: cell-based, human
Experimental: (A) Experimental strategy to assess indirect cell killing in HIV-1-infected human lymphoid cultures. Fresh human tonsil tissue from a single donor is processed into HLAC, and then separated into two fractions. One fraction is challenged with HIV-1 and cultured for 6 days, allowing viral spread. On day 5, the uninfected fraction is treated with AZT (5 μM) and labeled with CFSE (1 μM). On day 6, the infected and CFSE-labeled (i.e., uninfected) cultures are mixed and co-cultured in the presence of AZT. […] After 6 days of co-culturing, the number of viable CFSE-positive cells is determined by flow cytometry. (B) Flow cytometry analysis of the mixed HLACs. Indirect killing is determined by gating on live CFSE-positive cells in the mixed cultures. Effector cells are either infected or uninfected cells. […] CFSE-labeled cells mixed with uninfected or infected cells were cultured in the presence of 5 μM AZT alone or together with 250 nM AMD3100. Data represent live CFSE-positive cells 6 days after co-culture with infected or uninfected effector cells. […] The absolute numbers of viable CFSE-positive CD4 and CD8 T-cells and B cells were determined. Percentages are normalized to the number of viable CFSE-positive cells co-cultured with uninfected cells in the presence of AZT, as depicted by (*). Error bars represent standard deviations of three samples from the same donor. […] See also FIG. 3.
Human tonsil or splenic tissues from routine tonsillectomies were obtained from the National Disease Research Interchange and the Cooperative Human Tissue Network and processed as previously described (Jekle et al., 2003, J Virol 77:5846-5854). In brief, tonsils or spleen were minced, passed through a 40-μm cell strainer, and cultured in 96-well U-bottomed polystyrene plates (2×10^6 cells/well) in medium (200 μl/well) consisting of RPMI 1640 supplemented with 15% heat-inactivated fetal bovine serum, 100 μg/ml gentamicin, 200 μg/ml ampicillin, 1 mM sodium pyruvate, 1% nonessential amino acids (Mediatech), 2 mM L-glutamine, and 1% fungizone (Invitrogen). All HIV-1 infections were carried out with 20-50 ng of HIV-1 p24^gag. Cells were incubated with the virus for 12-16 h, washed extensively, and supplemented with fresh medium. After day 5, infections were monitored by measuring p24gag levels in the culture medium using a FLAQ assay (Hayden et al., 2003, AIDS 17:629-631). Infected and uninfected cultures were manipulated as described for individual experiments. In “indirect killing” assays, unless otherwise stated, drugs were used at the following concentrations: 5 μM AZT; 250 nM AMD3100; 10 μg/ml T20; 100 nM Efavirenz; 1 μM Nevirapine; 30 μM Raltegravir; 60 μM 118-D-24; 5 μM Amprenavir; 5 μM Saquinavir; 5 μM Indinavir. CFSE-labeled cells were activated with PHA (5 μg/ml) and IL-2 (20 ng/ml) 2 days before mixing with effector cells.
Uninfected cells (5×10^6/ml) were labeled with 1 μM CFSE (Molecular Probes C1157), treated with 5 μM AZT for 24 h, and co-cultured with effector cells. CFSE readily diffuses into cells, where intracellular esterases cleave the acetate groups, converting it to a fluorescent, membrane-impermeable dye.

[6] = tested on: IL-1β; test: Release of 17-kDa IL-1β from isolated tonsillar CD4 T-cells (ionophore stimulus); format: cell-based, human; conditions: nigericin 10 μM
Experimental: For stimulating the processing and secretion of IL-1, CD4 T-cells were isolated from HLACs by positive selection and treated with 0.5 μM PMA ([…], Calbiochem Cat. #524400) for 6 hours at 37° C. PMA induces large intracellular stores of the 35 kDa pro-IL-1β. Cells were then washed with PBS and treated with 10 μM nigericin (Sigma, Cat. # N7143) overnight at 37° C. The potassium ionophore nigericin mediates an elecroneutral exchange of intracellular K^+ ions for extracellular protons, providing a second inflammatory stimulus, which results in the maturation and release of the bioactive 17 kDa IL-1β(Perregaux et al., 1992, J Immunol 149:1294-1303; Perregaux and Gabel, 1994, J Biol Chem 269:15195-15203).
Isolated tonsillar CD4 T-cells were treated overnight with nigericin (10 μM) to provide a second inflammatory stimulus, resulting in maturation and release of bioactive 17-kDa IL-1β. Supernatants from the cell cultures were subjected to SDS-PAGE and immunoblotting. 17-kDa IL-1β was released after treatment with nigericin, but not with calcium ionophore A23187 or the nonspecific cation ionophore monensin. Thus, while these cells are primed, they must receive the appropriate proinflammatory signal for pro-IL-1β processing and release. […]

[7] = tested on: CD4 T cells in HIV-1 (NL4-3)-infected HLACs; test: CD4 T-cell death in HIV-1-infected HLACs, viable CD4 T cells by flow cytometry; format: cell-based, human; conditions: FIG. 15, 4 different donors
[8] = tested on: human PBMCs; conditions: cited from earlier work
[9] = tested on: murine models of inflammatory disease; conditions: cited from earlier work
[10] = tested on: human caspases; conditions: irreversible broad-spectrum; cited from earlier work
[11] = tested on: other classes of proteases or other enzymes or receptors; conditions: cited from earlier work
[12] = tested on: CI/WR (cold ischemia/warm reperfusion)-induced apoptosis and injury in the liver; conditions: in vivo; cited from earlier work
[13] = tested on: patients with hepatic impairment; conditions: phase I; cited from earlier work
[14] = tested on: patients with chronic Hepatitis C; conditions: oral or intravenous, 5 mg to 400 mg daily; cited from earlier work
[15] = tested on: CD4 T cells in HIV-1 (NL4-3)-infected HLACs; test: CD4 T-cell death in HIV-1-infected HLACs, viable CD4 T cells by flow cytometry; format: cell-based, human; conditions: 3 days
Experimental: HLACs were left uninfected or infected with HIV-1 (NL4-3 clone) in the presence of AZT, efavirenz, AMD3100, or caspase inhibitors (20 μM each), as indicated in FIG. 16. After 3 days, the percentages of viable CD4 T cells in the cultures were determined by flow cytometry.
HLACs were left uninfected or infected with NL4-3 in the presence of no drugs, efavirenz, AMD3100, or caspase inhibitors (50 μM or 100 μM), as indicated in FIG. 16B. After 3 days, the percentages of viable CD4 T cells in the cultures were determined by flow cytometry.

[16] = tested on: lactate dehydrogenase (LDH) release; test: LDH release from HIV-1-infected HLACs (pyroptosis); format: cell-based, human; conditions: caspase inhibitors 50 μM or 100 μM, 3 days, FIG. 16C
Experimental: Caspase-1 activation can lead to a highly inflammatory form of cell death called pyroptosis. To gain insight into how CD4 T cells die, it was determined whether HIV infection in CD4 T cells induce pyroptosis cell death, as measured by lactate dehydrogenase (LDH) release. HLACs were left uninfected or infected with NL4-3 in the presence of no drugs, efavirenz, AMD3100, or caspase inhibitors (50 μM or 100 μM), as indicated in FIG. 16C. After 3 days, the supernatants were assayed for the cytosolic enzyme lactate dehydrogenase (LDH) and the LDH released by dying cells was quantified.

Chain of caspase-1 (P29466 120-297 limits assumed): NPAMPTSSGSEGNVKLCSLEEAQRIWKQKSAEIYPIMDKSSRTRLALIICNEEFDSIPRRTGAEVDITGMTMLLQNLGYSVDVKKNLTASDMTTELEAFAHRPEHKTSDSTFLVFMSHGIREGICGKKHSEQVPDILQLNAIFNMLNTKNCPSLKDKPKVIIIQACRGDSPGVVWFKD
Chain of caspase-1 (P29466 317-404 limits assumed): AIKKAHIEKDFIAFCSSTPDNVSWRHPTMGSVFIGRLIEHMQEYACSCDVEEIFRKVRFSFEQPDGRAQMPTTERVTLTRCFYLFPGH
Chain of caspase-4 (P49662 81-270 limits assumed): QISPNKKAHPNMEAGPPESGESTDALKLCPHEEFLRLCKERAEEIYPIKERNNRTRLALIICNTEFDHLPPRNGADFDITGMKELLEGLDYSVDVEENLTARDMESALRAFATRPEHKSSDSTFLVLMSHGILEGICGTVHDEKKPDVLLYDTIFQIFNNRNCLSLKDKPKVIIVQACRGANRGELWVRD
Chain of caspase-4 (P49662 290-377 limits assumed): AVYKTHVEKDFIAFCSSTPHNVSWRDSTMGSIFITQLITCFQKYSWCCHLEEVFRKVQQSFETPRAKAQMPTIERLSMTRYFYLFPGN

CC(C)(O)c1coc(S(=O)(=O)NC(=O)Nc2c3c(cc4c2CCC4)CCC3)c1 [CRID3]
AIM2 inflammasome [1]: inhibited

O=C[C@H](CC(=O)O)NC(=O)[C@@H]1CCCN2C(=O)CC[C@H](NC(=O)c3nccc4ccccc34)C(=O)N12 [VRT-018858]
selectivity for caspase 1 and caspase-4 against other caspases [2]: > 100 fold
Ki ([2]; read-out: Ki against caspase-1): 1.3 nM
Ki [3]: 0.4 nM
brain damage induced by transient ischemia [4]: markedly reduced brain damage

COC(=O)C[C@H](NC(=O)[C@H](C)NC(=O)[C@@H](NC(=O)OCc1ccccc1)C(C)C)C(=O)CF [Z-VAD-FMK, Z-Val-Ala-Asp(OMe)-Fluoro methyl ester] (Cbz-Val-Ala-Asp(OMe)-CH2F)
death of abortively infected CD4 T-cells with caspase inhibitors ([5]; 20 μM caspase inhibitor, AZT 5 μM): completely prevented
nigericin-induced IL-1β release after pre-treatment with caspase inhibitor [6]: blocked
death of infected CD4 T-cells [7]: inhibit the death of infected CD4 T-cells

CCO[C@@H]1OC(=O)C[C@@H]1NC(=O)[C@@H]1CCCN1C(=O)[C@@H](NC(=O)c1ccc(N)c(Cl)c1)C(C)(C)C [VX-765, (S)-1-((S)-2-{[1-(4-Amino-3-chloro-phenyl)-methanoyl]-amino}-3,3-dimethyl-butanoyl)-pyrrolidine-2-carboxylic acid ((2R,3S)-2-ethoxy-5-oxo-tetrahydro-furan-3-yl)-amide]
IL-1β secretion ([8]; Stack et al.): blocked IL-1β secretion
IC50 ([8]; human PBMCs, read-out: IC50, release of LPS-induced IL-1β and IL-18): ~700 nM
inflammatory response [9]: reduces inflammatory response

C[C@H](NC(=O)C(=O)Nc1ccccc1C(C)(C)C)C(=O)N[C@@H](CC(=O)O)C(=O)COc1c(F)c(F)cc(F)c1F [IDN-6556]
caspase inhibition spectrum [10]: activity against all tested human caspases
inhibition of other classes of proteases or other enzymes or receptors [11]: no inhibition
CI/WR-induced apoptosis and injury in the liver and other organs [12]: reduced CI/WR (cold ischemia/warm reperfusion)-induced apoptosis and injury
tolerability [13]: well tolerated
efficacy (aminotransferase activity) [14]: efficacious
tolerability [14]: well tolerated

COC(=O)CC[C@H](NC(=O)[C@H](CC(=O)OC)NC(=O)OCc1ccccc1)C(=O)N[C@H](C(=O)N[C@@H](CC(=O)OC)C(=O)CF)C(C)C [Z-DEVD-FMK]
reduction of cell death ([5]; 20 μM, specific inhibition of caspase-3): 50%
CD4 T-cell population whose death was prevented ([15]; 20 μM, FIG. 16A): 50%
CD4 T-cell death in HIV-infected cultures ([15]; caspase inhibitors 50 μM or 100 μM, FIG. 16B): did not prevent the death
LDH release from HIV-1 infected cells [16]: did not prevent the LDH release
death of infected CD4 T-cells [7]: also inhibits death of infected CD4 T cells, however, not as efficient as caspase-1 inhibitors

From patent US9352010B2, “Treatment of HIV-1 infection and AIDS” (The J. David Gladstone Institutes, priority 2011, dated 2016)
